Patent publication US20190127381A1, “SUBSTITUTED FUSED PYRIMIDINONE COMPOUNDS” (TORRENT PHARMACEUTICALS LIMITED, priority 2016, published 2019)

Assays:
[1] = molecular target: T1, purified recombinant human PI3K enzyme δ (Homo sapiens, UniProt O00329); assay: Inhibition of PI3-Kinase enzymatic activity (HTRF enzyme assay), δ; type: biochemical; settings: 1 μM compound; PI3K δ 50 ng/well; PIP2 10 μM; ATP 200 μM; read-out: Percentage inhibition of PI3K activity, δ
T1 construct: purchased Invitrogen, USA
Description: (§1) Inhibition of PI3-Kinase enzymatic activity was determined using a homogeneous time-resolved fluorescence (HTRF) kit from Eurofins. 1 μM of Compounds of present invention were premixed with DMSO. The experiment was initiated by mixing 1.0% DMSO as vehicle/compounds with purified recombinant human PI3K enzyme {δ (50 ng/well); γ (100 ng/well)} (Invitrogen, USA) and substrate (PIP2, 10 μM) in the wells and incubation for 15 min at room temperature. There after ATP was added (δ at 200 μM, and γ at 50 μM) in to the wells containing reaction mixture, followed by re-incubation for 30 minutes at room temperature. Reaction was terminated by addition of a stopping solution and was further incubated for 4 hours at room temperature before reading using Envision multimode reader (Perkin Elmer). Percentage inhibition of PI3K activity was calculated by determining ratio of specific europium 665 nm energy transfer signal to reference 615 nm signals.

[2] = molecular target: T2, purified recombinant human PI3K enzyme γ (Homo sapiens, UniProt P48736); assay: Inhibition of PI3-Kinase enzymatic activity (HTRF enzyme assay), γ; type: biochemical; settings: 1 μM compound; PI3K γ 100 ng/well; PIP2 10 μM; ATP 50 μM; read-out: Percentage inhibition of PI3K activity, γ
T2 construct: purchased Invitrogen, USA
Description: as §1

T1 sequence (O00329 whole entry): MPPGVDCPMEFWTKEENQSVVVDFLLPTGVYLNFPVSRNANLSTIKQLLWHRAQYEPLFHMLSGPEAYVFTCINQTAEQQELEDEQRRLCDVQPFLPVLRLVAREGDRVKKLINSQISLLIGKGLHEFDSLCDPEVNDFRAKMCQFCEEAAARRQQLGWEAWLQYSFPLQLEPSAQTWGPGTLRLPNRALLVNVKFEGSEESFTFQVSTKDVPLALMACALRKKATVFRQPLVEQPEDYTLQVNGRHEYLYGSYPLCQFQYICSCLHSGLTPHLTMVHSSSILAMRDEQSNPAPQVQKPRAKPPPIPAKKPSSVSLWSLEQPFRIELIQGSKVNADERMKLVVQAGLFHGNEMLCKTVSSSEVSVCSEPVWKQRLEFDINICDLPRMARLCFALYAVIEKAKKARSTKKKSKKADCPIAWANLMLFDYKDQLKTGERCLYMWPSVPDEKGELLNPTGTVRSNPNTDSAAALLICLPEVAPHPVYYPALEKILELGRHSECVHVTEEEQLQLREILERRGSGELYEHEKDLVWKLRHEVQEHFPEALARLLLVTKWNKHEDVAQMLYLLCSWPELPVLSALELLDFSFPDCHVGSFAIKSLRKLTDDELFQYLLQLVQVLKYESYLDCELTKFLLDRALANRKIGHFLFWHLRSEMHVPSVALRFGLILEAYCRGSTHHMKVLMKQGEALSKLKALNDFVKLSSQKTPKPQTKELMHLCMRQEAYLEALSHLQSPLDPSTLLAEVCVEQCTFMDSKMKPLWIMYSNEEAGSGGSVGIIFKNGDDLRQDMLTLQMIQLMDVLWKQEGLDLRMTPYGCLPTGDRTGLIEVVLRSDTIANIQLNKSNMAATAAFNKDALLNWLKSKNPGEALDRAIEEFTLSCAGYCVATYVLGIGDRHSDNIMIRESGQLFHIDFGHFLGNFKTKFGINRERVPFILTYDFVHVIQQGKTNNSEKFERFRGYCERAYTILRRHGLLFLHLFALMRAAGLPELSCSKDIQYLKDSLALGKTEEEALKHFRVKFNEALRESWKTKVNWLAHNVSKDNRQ
T1 sequence (P27986 whole entry partner): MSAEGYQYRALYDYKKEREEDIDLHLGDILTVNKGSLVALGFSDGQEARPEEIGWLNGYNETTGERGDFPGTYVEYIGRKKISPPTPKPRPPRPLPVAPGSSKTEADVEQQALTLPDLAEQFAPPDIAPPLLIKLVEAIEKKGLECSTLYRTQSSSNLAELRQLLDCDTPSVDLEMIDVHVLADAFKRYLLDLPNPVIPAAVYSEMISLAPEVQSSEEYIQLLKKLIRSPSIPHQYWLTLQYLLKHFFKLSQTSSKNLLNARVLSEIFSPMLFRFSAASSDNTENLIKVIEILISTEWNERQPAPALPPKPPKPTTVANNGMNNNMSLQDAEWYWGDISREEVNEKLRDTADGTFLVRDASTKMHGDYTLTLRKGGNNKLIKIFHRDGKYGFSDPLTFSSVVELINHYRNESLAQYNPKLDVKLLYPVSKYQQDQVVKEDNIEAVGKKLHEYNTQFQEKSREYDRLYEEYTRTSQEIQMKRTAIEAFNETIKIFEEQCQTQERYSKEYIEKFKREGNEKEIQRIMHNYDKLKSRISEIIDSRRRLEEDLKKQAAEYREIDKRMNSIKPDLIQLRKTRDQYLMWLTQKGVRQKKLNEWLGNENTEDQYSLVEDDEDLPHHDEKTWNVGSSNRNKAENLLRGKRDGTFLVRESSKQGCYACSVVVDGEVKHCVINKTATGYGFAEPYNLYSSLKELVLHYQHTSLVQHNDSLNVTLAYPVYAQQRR
T2 sequence (P48736 whole entry): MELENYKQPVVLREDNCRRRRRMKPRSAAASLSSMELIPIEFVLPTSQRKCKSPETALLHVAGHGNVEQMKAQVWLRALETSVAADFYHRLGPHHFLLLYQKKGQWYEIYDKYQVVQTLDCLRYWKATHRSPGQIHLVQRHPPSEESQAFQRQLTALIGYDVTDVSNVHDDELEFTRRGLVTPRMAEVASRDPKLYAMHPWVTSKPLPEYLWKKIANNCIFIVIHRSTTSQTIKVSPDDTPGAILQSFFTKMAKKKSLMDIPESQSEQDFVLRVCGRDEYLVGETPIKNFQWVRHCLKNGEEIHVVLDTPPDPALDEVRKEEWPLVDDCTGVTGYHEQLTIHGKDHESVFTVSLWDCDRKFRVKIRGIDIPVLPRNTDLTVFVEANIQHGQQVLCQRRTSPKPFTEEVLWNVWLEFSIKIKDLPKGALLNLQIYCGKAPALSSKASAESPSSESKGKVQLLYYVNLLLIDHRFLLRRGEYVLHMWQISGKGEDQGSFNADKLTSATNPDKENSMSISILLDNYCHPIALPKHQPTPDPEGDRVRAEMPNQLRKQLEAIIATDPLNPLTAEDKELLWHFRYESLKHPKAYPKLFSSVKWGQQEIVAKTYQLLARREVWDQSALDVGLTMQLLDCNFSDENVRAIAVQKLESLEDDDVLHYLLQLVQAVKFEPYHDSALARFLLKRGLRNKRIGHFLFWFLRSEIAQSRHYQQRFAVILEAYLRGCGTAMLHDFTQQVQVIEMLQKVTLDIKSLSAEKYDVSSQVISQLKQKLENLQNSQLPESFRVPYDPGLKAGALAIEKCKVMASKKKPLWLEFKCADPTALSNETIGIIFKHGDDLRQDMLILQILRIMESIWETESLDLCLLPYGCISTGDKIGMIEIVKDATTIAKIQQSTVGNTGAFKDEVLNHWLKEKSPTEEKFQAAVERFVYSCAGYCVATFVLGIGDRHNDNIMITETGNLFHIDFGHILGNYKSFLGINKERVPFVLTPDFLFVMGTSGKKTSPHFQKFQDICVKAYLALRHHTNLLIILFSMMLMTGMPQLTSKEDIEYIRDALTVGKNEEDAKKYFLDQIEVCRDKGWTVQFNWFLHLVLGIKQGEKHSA

Compound	inhibition at 1 µM [1] [%]	inhibition at 1 µM [2] [%]
Cc1cccc2nc(C(C)n3nc(-c4ccc(O)c5c4CC(C)(C)O5)c4c(N)ncnc43)n(-n3cccc3)c(=O)c12 (racemic) [compound 96, 2-{(1RS)-1-[4-amino-3-(7-hydroxy-2,2-dimethyl-2,3-dihydro-1-benzofuran-4-yl)-1H-pyrazolo[3,4-d]pyrimidin-1-yl]ethyl}-5-methyl-3-(1H-pyrrol-1-yl)quinazolin-4(3H)-one]	80 to 100	80 to 100
Cc1cccc2nc(Cn3nc(-c4ccc(O)c5c4CC(C)(C)O5)c4c(N)ncnc43)n(-n3cccc3)c(=O)c12 [Compound No. 2, 2-{[4-amino-3-(7-hydroxy-2,2-dimethyl-2,3-dihydro-1-benzofuran-4-yl)-1H-pyrazolo[3,4-d]pyrimidin-1-yl]methyl}-5-methyl-3-(1H-pyrrol-1-yl)quinazolin-4(3H)-one]	80 to 100	80 to 100
CC1(C)Cc2c(-c3nn(Cc4nc5cccc(Br)c5c(=O)n4-n4cccc4)c4ncnc(N)c34)ccc(O)c2O1 [Compound No. 9, 2-{[4-amino-3-(7-hydroxy-2,2-dimethyl-2,3-dihydro-1-benzofuran-4-yl)-1H-pyrazolo[3,4-d]pyrimidin-1-yl]methyl}-5-bromo-3-(1H-pyrrol-1-yl)quinazolin-4(3H)-one]	80 to 100	80 to 100
Nc1ncnc2c1c(-c1ccc(O)c3c1CCC3)nn2Cc1nc2cccc(Cl)c2c(=O)n1-n1cccc1 [compound 1, 2-{[4-amino-3-(7-hydroxy-2,3-dihydro-1H-inden-4-yl)-1H-pyrazolo[3,4-d]pyrimidin-1-yl]methyl}-5-chloro-3-(1H-pyrrol-1-yl)quinazolin-4(3H)-one]	80 to 100	80 to 100
CC1(C)Cc2c(-c3nn(Cc4nc5cccc(Cl)c5c(=O)n4-n4cccn4)c4ncnc(N)c34)ccc(O)c2O1 [compound 6, 2-{[4-amino-3-(7-hydroxy-2,2-dimethyl-2,3-dihydro-1-benzofuran-4-yl)-1H-pyrazolo[3,4-d]pyrimidin-1-yl]methyl}-5-chloro-3-(1H-pyrazol-1-yl)quinazolin-4(3H)-one]	80 to 100	60 to 80

The remaining lines, values ahead:

inhibition at 1 µM [1] [%]	inhibition at 1 µM [2] [%]	Compound
80 to 100	80 to 100	CC1(C)Cc2c(-c3nn(Cc4nc5cccc(Cl)c5c(=O)n4-n4cccc4)c4ncnc(N)c34)ccc(O)c2O1 [Compound No. 3, 2-{[4-amino-3-(7-hydroxy-2,2-dimethyl-2,3-dihydro-1-benzofuran-4-yl)-1H-pyrazolo[3,4-d]pyrimidin-1-yl]methyl}-5-chloro-3-(1H-pyrrol-1-yl)quinazolin-4(3H)-one]
80 to 100	40 to 60	CC1(C)Cc2c(-c3nn(Cc4nc5cccc(Cl)c5c(=O)n4-n4cc5ccccc5n4)c4ncnc(N)c34)ccc(O)c2O1 [Compound No. 4, 2-{[4-amino-3-(7-hydroxy-2,2-dimethyl-2,3-dihydro-1-benzofuran-4-yl)-1H-pyrazolo[3,4-d]pyrimidin-1-yl]methyl}-5-chloro-3-(2H-indazol-2-yl)quinazolin-4(3H)-one]
80 to 100	60 to 80	Cc1cccc2nc(Cn3nc(-c4ccc(O)c5c4CC(C)(C)O5)c4c(N)ncnc43)n(C3(c4ccccc4)CC3)c(=O)c12 [Compound No. 8, 2-{[4-amino-3-(7-hydroxy-2,2-dimethyl-2,3-dihydro-1-benzofuran-4-yl)-1H-pyrazolo[3,4-d]pyrimidin-1-yl]methyl}-5-methyl-3-(1-phenylcyclopropyl)quinazolin-4(3H)-one]
80 to 100	80 to 100	CC1(C)Cc2c(-c3nn(Cc4nc5cccc(Cl)c5c(=O)n4C4(c5ccccc5)CC4)c4ncnc(N)c34)ccc(O)c2O1 [compound 5, 2-{[4-amino-3-(7-hydroxy-2,2-dimethyl-2,3-dihydro-1-benzofuran-4-yl)-1H-pyrazolo[3,4-d]pyrimidin-1-yl]methyl}-5-chloro-3-(1-phenylcyclopropyl)quinazolin-4(3H)-one]
